We go through eight compounds from US6545019B2, “Method of modulating microglial activation for the treatment of acute and chronic neurodegenerative disorders” (Bristol-Myers Squibb Company, priority 2000, dated 2003).

“Also recorded” adds a separate entry of the source.

The subject of assay [1] is LPS activated rat microglia cells. Kind of assay: TNF-alpha release from LPS activated rat primary microglia (ELISA). It is filed as cell-based. Conditions: for TNF-alpha release: rat primary microglia, 100 ng/ml LPS, compound 1 hr before LPS, supernatant 24 hrs post-LPS. Here is the method: (§1) Rat microglia were prepared from two day old rat pups. Pup brains were removed and the meninges were gently removed. Once sufficient amount of brains were collected, brains were minced with a blunt scissors (10 times) and transferred to a 15ml conical tube with a pasteur pipette and titurated 25 times. Dissociated cells were then centrifuged at 1000 RPM for 10 minutes (RT). The supernatant was removed and 2 mls of fresh media was added. The resultant cell suspension was titurated 10 times. Following titration the cell suspension was plated in a T175 cm^2 culture flasks at a density of 4 brains per flask in 25 mls. MEM media was used for the experiments, supplemented with 10% FBS, 100 i.u.penicillin, 100 i.u.streptomycin and L-Glutamine. Microglia were isolated on day 14 by shaking on an orbital rotation shaker. The purity of the cultures was 98-100% as determined by immunostaining with ED-40 antibody.
(§2) Endotoxin (LPS) at a concentration of a 100 ng/ml were used for activation of rat microglia cells. This concentration had previously shown to be effective in inducing TNF-alpha and Nitrite release. All assays were performed in 48 well plates (Becton Dickinson) at ˜2×10^5 cells or 0.5×10^5 per 1 ml per well in 10% MEM media. Microglia cells were pre-incubated 1 hr prior to LPS challenge with either vehicle (0.1%DMSO) or test compound in DMEM containing 10%FBS (microglia) or RPMI containing 10%FBS (THP-1 monocytes). Supernatants from LPS activated rat microglia were collected at 24 hrs post-LPS challenge.
Collected supernatants were assayed for TNF-alpha using a Pharmingen OPtEIA Rat (microglia).
Background: An ELISA detects its analyte on a solid surface through an enzyme-linked reagent.

Assay [2] has the same test system. Kind of assay: Nitrite (NO) release from LPS activated rat primary microglia (Modified Griess Reagent). Type of assay: cell-based. As to conditions: 100 ng/ml LPS, compound 1 hr before LPS, supernatant 24 hrs post-LPS. Here is the method: as §1, §2
Nitrite assay was performed in a 96 well plate using a Modified Griess Reagent (Sigma). In brief, a 100 ul of Modified Griess Reagent was added to a 100 ul of collected supernatant. Samples were read at a wavelength of 540nm. All values were calculated against a NaNO2 standard curve.
A general note: Griess reagent forms a coloured azo dye with nitrite.

A further assay concerns IκBα phosphorylation. Conditions: irreversible inhibitor; read-out: IC50, inhibition of IκBα phosphorylation; cited from earlier work.
Another assay deals with IκBα. Kind of assay: LPS mediated IκBα degradation in microglia (immunoblotting). It is filed as cell-based, rat. As to conditions: 100 ng/ml LPS, 10μM ATFMK, 50μM L-655,238. Here is the method:
Immunoblotting was carried out as described previously (Parvathenani et al., 2000). Briefly 25μg of protein was fractionated on a 4-20% tris-glycine gel (NOVEX, Calif.) and transferred to PVDF membrane (NOVEX, Calif.). The membrane was probed with a polyclonal antibody specific for IκBα. To distinguish between the phosphorylated and non-phosphorylated forms of cPLA2, 50μg of protein was run on an 8% tris-glycine gel (Novex, Calif.) for 4.5 hours at 125V, transferred and probed with a monoclonal antibody specific for cPLA2.
Effects of cPLA2 and 5-LOX inhibitors on LPS mediated IκBα degradation. Microglia were treated with 100 ng/ml of LPS for various periods of time following which whole cell lysates were prepared and run on SDS-PAGE, transferred and probed with a IκBα antibody as mentioned in immunoblotting. (6A) 100 ng/ml LPS alone, (6B) LPS+10μM ATFMK, (6C) LPS+50μM L-655,238.

A further assay deals with NF-κB (p65). Kind of assay: LPS mediated NF-κB (p65) nuclear translocation in microglia (indirect immunofluorescence). Type of assay: cell-based, rat. Conditions: 100 ng/ml LPS, 5 min, 10μM ATFMK, 50μM L-655,238. Here is the method: Cells were washed once with PBS, fixed and permeabilized with ice cold methanol (100%) for 5 minutes and washed 3× in PBS for 10 min. The cover slips were blocked for 1 hour in 10% serum/PBS (serum derived from animal in which secondary antibody was generated), incubated for 2-3 hours in primary antibody solution (1:50 dilution in 1.5% serum/PBS) and washed 3× in PBS for 10 min. Secondary antibody linked to fluorescein was applied for one hour (1:100 dilution in 1.5% serum/PBS) and washed 3× in PBS for 10 min. If the nucleus was stained, the cells were incubated for 15 minutes with DAPI (1:10000) at 37° C. and washed. The coverslips were then mounted onto glass slides using mounting media and viewed under a fluorescence microscope.
Effects of cPLA2 and 5-LOX inhibitors on LPS mediated NF-κB translocation. Microglia were treated with 100 ng/ml of LPS for various periods of time following which p65 distribution was assessed by indirect immunofluorescence (7A) control, (7B) LPS-5 min., (7C) LPS+10μM ATFMK—5 min., (7D) LPS+50μM L-655,238—5 min. (7E) LPS+NDGA-20μM—5 min.

The subject of another assay is 5-LOX. Conditions: cited from earlier work.
For another assay, the system named is COX. As to conditions: cited from earlier work.

As for `Cc1ccc(-c2cc(C(F)(F)F)nn2-c2ccc(S(N)(=O)=O)cc2)cc1` [celecoxib], in assay [1], the “pro-inflammatory release on activated microglia” value is “no significant effect”.

On to `O=C(CCc1ccc(OCCS(=O)(=O)CCOC(c2ccc(Cl)cc2)c2ccc(Cl)cc2)cc1)C(F)(F)F` [BMS 229724], for which the TNF-alpha release entry in assay [1] was “significant dose-dependent inhibition”; in assay [1] (listed as BMS-229724) it was “significantly inhibited TNF-alpha release”. Besides, the “nitrite (NO) release” value in assay [2] is “significant dose-dependent inhibition”.

By IC50 is commonly meant the concentration that inhibits the measured activity by half. `CC(C)(C)c1ccc(S(=O)(=O)/C=C/C#N)cc1` [BAY 11-7085, (E)3-((4-t-Butylphenyl)sulfonyl)-2-propenenitrile]: the TNF-alpha release entry in assay [1] was “inhibited LPS induced TNFα and NO release to control levels”. Further, the “nitrite (NO) release” value in assay [2] is “inhibited LPS induced TNFα and NO release to control levels”. For the same compound, in the assay on IκBα phosphorylation, the IC50 was 10 µM.

As for `CCCCC/C=C\C/C=C\C/C=C\C/C=C\CCCC(=O)C(F)(F)F` [ATFMK, arachidonyltrifluoromethyl ketone], the TNF-alpha release entry in assay [1] is listed as “significant dose-dependent inhibition; also recorded: significantly inhibited TNF-alpha release”. Further, the “nitrite (NO) release” value in assay [2] is listed as “significant dose-dependent inhibition; also recorded: significantly inhibited nitrite release”. The “degradation of IκBα following LPS stimulation” value in the assay on IκBα is reported as “attenuated the degradation of IκBα”. For the same compound, the “translocation of NF-κB into the nucleus” value with NF-κB (p65) is recorded as “delayed the translocation of NF-κB into the nucleus”.

Consider `CC(Cc1ccc(O)c(O)c1)C(C)Cc1ccc(O)c(O)c1` (centres unmarked) [NDGA, nordihdroguaiaretic acid], for which the TNF-alpha release entry in assay [1] was “dose dependently inhibited TNF-alpha release and nitrite to near control levels; also recorded: significantly inhibited TNF-alpha release”. Besides, in assay [2], the “nitrite (NO) release” value was “dose dependently inhibited TNF-alpha release and nitrite to near control levels”. Besides, the results for the IC50 with 5-LOX and with COX were […] and 100 µM, respectively.

Turning to `CCCCCC(O)c1ccc(Cc2cnc3ccccc3c2)cc1` (stereo not drawn) [para-REV5901, α-pentyl-4-(3-quinolinylmethyl)benzenemethanol], the TNF-alpha release entry in assay [1] was “dose dependently inhibited TNF-alpha release and nitrite to near control levels; also recorded: significantly inhibited TNF-alpha release”. Also, in assay [2], the “nitrite (NO) release” value was “dose dependently inhibited TNF-alpha release and nitrite to near control levels; also recorded: significantly inhibited nitrite release”. Further, in the assay with IκBα, the “degradation of IκBα following LPS stimulation” value is “attenuated the degradation of IκBα”. For the same compound, in the assay with NF-κB (p65), the “translocation of NF-κB into the nucleus” value is recorded as “delayed the translocation of NF-κB into the nucleus”. The IC50 in the assay on 5-LOX was 0.1 µM.

As for `CS(=O)(=O)c1ccc(C2=C(c3ccccc3)C(=O)OC2)cc1` [rofecoxib], in assay [1], the “pro-inflammatory release on activated microglia” value is “no significant effect” and the TNF-alpha release result is “failed to produce any reduction in TNF-alpha release”.

Consider `CC(C)Cc1ccc(C(C)C(=O)O)cc1` (centres unmarked) [Ibuprofen], for which the TNF-alpha release entry in assay [1] was “failed to produce any reduction in TNF-alpha release”.
